Laboratory results reported in patent US20130245064A1, “NOVEL NEUROTRYPSIN INHIBITORS” (priority 2010, published 2013).

Experiments:
Kallikrein = molecular target: T1, Kallikrein (Homo sapiens, UniProt P03952); assay: Determination of IC50 for various proteases: kallikrein; assay type: biochemical; conditions: kallikrein 2 nM, substrate S-2288 0.5 mM; Mean ± SD
T1 construct: purchased American diagnostic
Method: (§1) A 6 mM solution of the test compound in DMSO was prepared. In a V-bottom micro plate the 6 mM compound solution was diluted 6 times in DMSO to obtain a concentration row with the following concentrations: 6 mM, 1.8 mM, 540 μM, 162 μM, 48.8 μM, 14.4 μM, and 4 μM. From this DMSO master plate 1:20 dilutions in 10 mM MOPS pH 8.3 were prepared to obtain solutions of 300, 90, 27, 8.1, 2.44, 0.72 and 0.22 μM in MOPS buffer and 5% DMSO.
(§2) 100 μl of this solution were pipetted into a flat bottom 96 well microplate and placed into a Tecan infinite 200 plate reader. Before measurement, 50 μl of protease solution and, subsequently 50 μl substrate solution were added by the machine. The liberation of free para nitroanilide was detected at 405 nm. The protease solution was freshly prepared by diluting to the desired concentration from a stock solution in 60 mM MOPS; 600 mM NaCl; 20 mM CaCl2; 10% DMSO; 0.4% PEG 6000 pH 8.3. The substrate solution was prepared by dissolving the solid substrate in an adequate amount of water to get the desired concentrations. The used protease and substrate solutions are given below:
(§3) All enzymes except trypsin were from human origin (American diagnostic). Trypsin was hog trypsin (Sigma Aldrich). Substrates were purchased from Chromogenix. […]

Plasmin = molecular target: T2, Plasmin (Homo sapiens, UniProt P00747); assay: Determination of IC50 for various proteases: plasmin; assay type: biochemical; conditions: plasmin 8 nM, substrate S-2288 0.5 mM; Mean ± SD
T2 construct: purchased American diagnostic
T2 sequence (P00747 581-810 limits assumed): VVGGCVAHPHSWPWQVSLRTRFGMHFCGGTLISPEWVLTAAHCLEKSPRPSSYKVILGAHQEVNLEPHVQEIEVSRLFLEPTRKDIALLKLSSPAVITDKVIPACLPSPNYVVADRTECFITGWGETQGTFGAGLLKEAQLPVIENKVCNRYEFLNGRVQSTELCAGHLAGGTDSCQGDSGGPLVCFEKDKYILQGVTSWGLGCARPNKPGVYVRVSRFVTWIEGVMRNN
T2 sequence (P00747 97-580 partner limits assumed): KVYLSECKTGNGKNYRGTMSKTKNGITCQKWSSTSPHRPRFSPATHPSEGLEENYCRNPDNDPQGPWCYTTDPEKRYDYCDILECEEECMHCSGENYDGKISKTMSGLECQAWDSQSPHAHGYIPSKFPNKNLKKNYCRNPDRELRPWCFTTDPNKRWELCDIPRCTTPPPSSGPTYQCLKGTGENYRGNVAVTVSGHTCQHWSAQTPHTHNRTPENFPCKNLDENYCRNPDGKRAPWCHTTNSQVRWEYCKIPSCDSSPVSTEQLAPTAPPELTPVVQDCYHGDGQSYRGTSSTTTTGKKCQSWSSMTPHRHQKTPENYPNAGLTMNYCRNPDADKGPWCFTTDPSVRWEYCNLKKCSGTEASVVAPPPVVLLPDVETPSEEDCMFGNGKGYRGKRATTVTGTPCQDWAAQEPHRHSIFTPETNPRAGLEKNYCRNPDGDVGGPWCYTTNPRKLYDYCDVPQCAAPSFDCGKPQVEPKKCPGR
Method: as §1, §2, §3

uPA = molecular target: T3, uPA (Homo sapiens, UniProt P00749); assay: Determination of IC50 for various proteases: uPA; assay type: biochemical; conditions: uPA 40 nM, substrate S-2288 0.5 mM; Mean ± SD
T3 construct: purchased American diagnostic
Method: as §1, §2, §3

[1] = system: C-terminal agrin fragment (CAF); assay: Analysis of serum CAF levels by western blotting in treated mice; assay type: in vivo, C57/BL6 mice; conditions: mouse serum pools, 25 mg/kg x 3 s.c., 5 h after last injection, western blot normalized to vehicle
Method: Adult (P50) C57/BL6 mice from Charles River were used for the experiments. All animal experiments are performed in accordance with international guidelines for proper conduct of animal experiment under jurisdiction of the Swiss law (Permit number ZH-18/2008). For every mouse in the experiment the well-being during the interventions is documented in a score sheet.
Three adult mice were treated with 2.5 ml/kg of a 10 mg/ml solution of the compound of Example 1 in 100% DMSO. This corresponds to a dose of 25 mg/kg active ingredient. As vehicle control, 3 mice were treated with 2.5 ml/kg of 100% DMSO. Each mouse received three subcutaneous injections. Between dose 1 and dose 2 there were 8 h, between dose 2 and dose 3 16 h. 5 h after the last injection the mice were euthanatized with CO2.
Before the first injection the mice were weighted and ˜100 μl of blood was collected from the lateral tail vein. Serum was prepared with centrifugation of blood samples in Microvette 500 Z-Gel tubes (10,000 g, 20° C., 5 min). […]
After staining for CAF the membrane was washed thoroughly and reused for a staining for endogenous mouse antibodies that served as loading control. […] After imaging with a Stella imaging system (Raytest) the intensity of the CAF bands was measured with AIDA picture analysis software (Raytest) and normalized to the loading levels determined from mouse antibody light chains. […]

Factor Xa = molecular target: T4, Factor Xa (Homo sapiens, UniProt P00742); assay: Determination of IC50 for various proteases: Factor Xa; assay type: biochemical; conditions: Factor Xa 5 nM, substrate S-2288 0.5 mM; Mean ± SD
T4 construct: purchased American diagnostic
T4 sequence (P00742 235-488 limits assumed): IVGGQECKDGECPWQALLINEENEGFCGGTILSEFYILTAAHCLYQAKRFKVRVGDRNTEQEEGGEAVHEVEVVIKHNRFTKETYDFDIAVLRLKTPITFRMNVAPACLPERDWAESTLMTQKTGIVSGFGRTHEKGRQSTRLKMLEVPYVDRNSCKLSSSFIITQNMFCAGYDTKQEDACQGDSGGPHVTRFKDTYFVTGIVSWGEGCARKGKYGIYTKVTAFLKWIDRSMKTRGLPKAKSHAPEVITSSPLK
T4 sequence (P00742 41-179 partner limits assumed): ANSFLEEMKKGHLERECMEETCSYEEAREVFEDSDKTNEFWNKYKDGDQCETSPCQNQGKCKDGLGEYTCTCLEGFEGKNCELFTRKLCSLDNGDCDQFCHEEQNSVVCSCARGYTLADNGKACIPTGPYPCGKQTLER
Method: as §1, §2, §3

tPA (2 chain) = molecular target: T5, tPA (2 chain) (Homo sapiens, UniProt P00750); assay: Determination of IC50 for various proteases: tPA; assay type: biochemical; conditions: tPA (2 chain) 40 nM, substrate S-2288 0.5 mM; Mean ± SD
T5 construct: tPA (2 chain); purchased American diagnostic
T5 sequence (P00750 311-562 limits assumed): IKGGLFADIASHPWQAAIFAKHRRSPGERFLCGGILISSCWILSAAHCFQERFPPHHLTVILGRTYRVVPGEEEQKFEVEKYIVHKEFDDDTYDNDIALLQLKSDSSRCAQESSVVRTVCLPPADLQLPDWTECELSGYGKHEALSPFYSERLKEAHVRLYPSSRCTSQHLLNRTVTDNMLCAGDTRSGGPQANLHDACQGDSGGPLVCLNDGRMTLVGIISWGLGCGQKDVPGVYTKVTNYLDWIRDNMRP
T5 sequence (P00750 36-310 partner limits assumed): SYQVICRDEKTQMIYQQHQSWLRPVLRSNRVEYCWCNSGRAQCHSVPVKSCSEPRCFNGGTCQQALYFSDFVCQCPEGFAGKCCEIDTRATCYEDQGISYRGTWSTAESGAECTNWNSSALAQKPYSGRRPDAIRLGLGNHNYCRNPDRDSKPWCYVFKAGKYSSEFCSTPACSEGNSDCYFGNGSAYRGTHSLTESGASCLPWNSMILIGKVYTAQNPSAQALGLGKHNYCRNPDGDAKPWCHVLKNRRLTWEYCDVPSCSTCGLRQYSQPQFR
Method: as §1, §2, §3

Thrombin = molecular target: T6, Thrombin (Homo sapiens, UniProt P00734); assay: Determination of IC50 for various proteases: thrombin; assay type: biochemical; conditions: thrombin 6 nM, substrate S-2266 0.5 mM; Mean ± SD
T6 construct: purchased American diagnostic
Method: as §1, §2, §3

T1 sequence (P03952 391-638 limits assumed): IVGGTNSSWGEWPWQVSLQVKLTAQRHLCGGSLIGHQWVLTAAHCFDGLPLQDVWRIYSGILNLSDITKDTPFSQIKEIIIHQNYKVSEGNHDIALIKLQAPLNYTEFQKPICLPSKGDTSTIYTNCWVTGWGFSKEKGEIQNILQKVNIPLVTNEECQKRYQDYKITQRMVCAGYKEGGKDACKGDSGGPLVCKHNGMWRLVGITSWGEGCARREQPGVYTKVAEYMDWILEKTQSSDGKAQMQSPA
T1 sequence (P03952 20-390 limits assumed): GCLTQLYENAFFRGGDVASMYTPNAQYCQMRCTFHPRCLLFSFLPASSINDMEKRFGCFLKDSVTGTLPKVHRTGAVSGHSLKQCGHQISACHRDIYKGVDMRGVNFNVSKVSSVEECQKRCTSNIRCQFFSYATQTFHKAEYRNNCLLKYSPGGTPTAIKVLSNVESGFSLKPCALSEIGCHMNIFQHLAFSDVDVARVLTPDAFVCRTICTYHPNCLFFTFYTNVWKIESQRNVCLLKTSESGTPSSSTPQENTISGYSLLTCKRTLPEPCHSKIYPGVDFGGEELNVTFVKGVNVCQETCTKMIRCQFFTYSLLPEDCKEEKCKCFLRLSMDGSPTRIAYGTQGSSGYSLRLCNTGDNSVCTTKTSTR

IC50 (Kallikrein): > 150 µM
IC50 (Plasmin): > 150 µM
IC50 (uPA): > 150 µM
IC50 (Factor Xa): 84.8 ± 46.4 µM
IC50 (tPA (2 chain)): > 150 µM
IC50 (Thrombin): > 150 µM
SMILES: O=C(Nc1ccc(C(=O)Nc2ccc(Cl)cc2)c(O)c1)c1ccc(-c2nc3cc(Cl)c(Cl)cc3[nH]2)cc1 [Example 1, N-(4-Chlorophenyl)-4-(4-(5,6-dichloro-1H-benzo[d]imidazol-2-yl)benzamido)-2-hydroxybenzamide]
Average CAF levels [1]: 66.6 % of vehicle
